{"source": "patent US12653856B2", "about": "“Gynostemma pentaphyllum tea or Gynostemma pentaphyllum tea extract containing gypenoside L and gypenoside LI and antiobesity use thereof” (BIONIC TRADING CORPORATION, priority 2021, dated 2026)", "tested_on": "male ICR mice on high-fat feed", "assay": "Body fat and body weight reduction in mice given high-fat feed", "type": "in vivo, mouse", "conditions": "extracts 300 mg/kg", "text": "As experimental animals, 4-week-old male ICR mice were purchased from Orient Bio and acclimated for a week. Each group consisted of 10 animals. For a normal diet group (G1) and high-fat diet groups (G2 to G6), normal feed (energy ratio (kcal %); protein:carbohydrate:fat=20:70:10) or high-fat feed (energy ratio (kcal %); protein:carbohydrate:fat=20:20:60) purchased from Research Diets, Inc. (New Brunswick, NJ, USA) was provided, respectively. The feed and water were allowed freely. The specific compositions of the normal feed and the high-fat feed are described in Table 6. The test substance was administered orally at regular intervals for 8 weeks by dissolving in physiological saline (G3 to G6). For G1 and G2, physiological saline containing no test substance was administered orally. The experimental animal breeding room was maintained at 12-hour lighting cycles under the condition of 23±3° C., 50 t 10% relative humidity and 10-15 ventilations/hour. The animal experiment was conducted in accordance with the regulations of the Hallym University Institutional Animal Care and Use Committee (Hallym 2018-31). The experimental animals were divided into […]: normal group (G) to which normal feed was given for 6 weeks; control group (G2) to which high-fat feed was given; G3 to which high-fat feed was given and 300 mg/kg of the Gynostemma pentaphyllum tea extract of Example was administered; G4 to which 300 mg/kg of the Gynostemma pentaphyllum tea extract of Comparative Example was administered; G5 to which 300 mg/kg of the Gynostemma pentaphyllum tea extract of Comparative Example 2 was administered; G6 to which 300 mg/kg of the Gynostemma pentaphyllum tea extract of Comparative Example 3 was administered; […] The composition of the test groups is described specifically in Table 7. Initial body weight, final body weight, total body weight gain, feed intake, body fat percentage and feed efficiency ratio (FER) were measured while providing the feed specified in 6-2 to each test group for 8 weeks. Specifically, the body weight was measured using a digital scale once a week at the same time. The feed efficiency ratio (FER) was calculated by the following equation. The result of investigating the initial body weight, final body weight, total body weight gain, feed intake, body fat percentage and feed efficiency ratio for 8 weeks is given in Table 8. Feed efficiency ratio (FER)=body weight gain (g)/feed intake (g) [Equation]", "key": {"[1]": {"conditions": "high-fat feed, 8 weeks oral, orlistat 30 mg/kg"}}, "note": "Marks after values point to notes of the source that are not given here.", "data": [{"compound": "CCCCCCCCCCC[C@@H](C[C@@H]1OC(=O)[C@H]1CCCCCC)OC(=O)[C@H](CC(C)C)NC=O", "note": "[Orlistat, orlistat]", "values": [{"measurement": "Initial body weight", "setting": "baseline, high-fat feed ICR mice, orlistat 30 mg/kg oral", "result": "21.7 ± 0.2", "unit": "g"}, {"measurement": "Feed efficiency ratio (FER)", "setting": "body weight gain (g)/feed intake (g), high-fat feed, 8 weeks oral, orlistat 30 mg/kg", "result": "0.126 ± 0.005"}, {"measurement": "Body fat percentage (%)", "setting": "[1]", "result": "36.6 ± 0.7", "unit": "%"}, {"measurement": "Body weight gain (%)", "setting": "[1]", "result": "70.97* %"}, {"measurement": "Final body weight", "setting": "[1]", "result": "37.1 ± 0.6", "unit": "g"}, {"measurement": "Total body weight gain", "setting": "[1]", "result": "15.4 ± 0.2", "unit": "g"}, {"measurement": "Total feed intake", "setting": "[1]", "result": "122.4 ± 0.3", "unit": "g"}]}]}
